One experiment concerns the target T1, MMP-14 (Homo sapiens, UniProt P50281).
T1 construct: The catalytic domain enzyme was expressed in E. coli inclusion bodies, solubilized in urea; made in house
The experiment in a line: In vitro MMP inhibition, IC50 determination (fluorogenic substrate I). The format is biochemical. The conditions noted are these: read-out: MMP-14 (IC-50).

A further experiment addresses T2, MMP-9 (Homo sapiens, UniProt P14780).
T2 construct: made in house; host or cells: MMP-9-transfected HT1080 cells (spent media)
The description is as above. The format is biochemical. The settings on record: read-out: MMP-9 (IC-50).

Drawing on patent US20050209278A1, “Piperidinyl- and piperazinyl-sulfonylmethyl hydroxamic acids and their use as protease inhibitors” (priority 2002, published 2005), this text covers IC50 for eleven compounds.

Where two headings read alike, the source gives them in different places. Bounds are passed on as bounds.

T2 sequence (P14780 107-707 limits assumed): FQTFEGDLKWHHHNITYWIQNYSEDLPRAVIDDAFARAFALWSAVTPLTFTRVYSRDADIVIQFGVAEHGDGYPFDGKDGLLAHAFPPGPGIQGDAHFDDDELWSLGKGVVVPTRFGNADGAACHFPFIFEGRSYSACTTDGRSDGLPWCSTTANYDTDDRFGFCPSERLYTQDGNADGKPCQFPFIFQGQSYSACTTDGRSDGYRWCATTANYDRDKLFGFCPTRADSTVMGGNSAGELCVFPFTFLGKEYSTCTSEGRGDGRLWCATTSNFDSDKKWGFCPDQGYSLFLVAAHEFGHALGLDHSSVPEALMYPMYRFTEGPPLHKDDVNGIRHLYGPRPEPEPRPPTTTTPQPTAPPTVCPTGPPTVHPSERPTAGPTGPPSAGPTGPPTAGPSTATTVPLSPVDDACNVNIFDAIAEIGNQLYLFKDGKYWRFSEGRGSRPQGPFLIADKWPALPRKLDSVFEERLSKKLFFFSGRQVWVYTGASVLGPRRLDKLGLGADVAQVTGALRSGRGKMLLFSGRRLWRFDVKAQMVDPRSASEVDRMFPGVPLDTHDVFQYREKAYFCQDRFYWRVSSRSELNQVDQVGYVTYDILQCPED

As to `CCOCCCc1ccc(N2CCN(S(=O)(=O)C3(C(=O)NO)CCN(CCOC)CC3)CC2)cc1` [Example 179], the figures for the IC50 on MMP-14 (value in parenthesis) and at MMP-9 (value in parenthesis) were 3620 nM and 3.39 nM, respectively.
As to `COCCCc1ccc(N2CCN(S(=O)(=O)C3(C(=O)NO)CCN(CCOC)CC3)CC2)cc1` [Example 180], the IC50 stood at 5560 nM on MMP-14 (value in parenthesis) and 2.25 nM at MMP-9 (value in parenthesis).
Consider `COCCN1CCC(C(=O)NO)(S(=O)(=O)N2CCN(c3ccc(CC4CCCCC4)cc3)CC2)CC1` [Example 181], for which the IC50 at MMP-14 (value in parenthesis) was above 10000 nM; at MMP-9 (value in parenthesis), 45.6 nM.
For `COCCN1CCC(C(=O)NO)(S(=O)(=O)N2CCN(c3ccc(CCC4CCCC4)cc3)CC2)CC1` [Example 182] the same measures were 7850 nM and 1.72 nM.
`COCCN1CCC(C(=O)NO)(S(=O)(=O)N2CCN(c3ccc(CC4CCC4)cc3)CC2)CC1` [Example 183]: the IC50 stood at 2040 nM at MMP-14 (value in parenthesis) and 1.67 nM on MMP-9 (value in parenthesis).
On to `CCOc1ccc(N2CCN(S(=O)(=O)C3(C(=O)NO)CCN(CCOC)CC3)CC2)cc1F` [Example 184], for which the IC50 at MMP-14 (value in parenthesis) was determined as 2400 nM; on MMP-9 (value in parenthesis) it was 2.79 nM.
Consider `CCCOc1ccc(N2CCN(S(=O)(=O)C3(C(=O)NO)CCN(CCOC)CC3)CC2)cc1F` [Example 185], for which the IC50 is above 10000 nM at MMP-14 (value in parenthesis) and 1.19 nM at MMP-9 (value in parenthesis).
Turning to `COCCN1CCC(C(=O)NO)(S(=O)(=O)N2CCN(c3ccc(C#N)cc3)CC2)CC1` [Example 186], the IC50 at MMP-14 (value in parenthesis) worked out at 7480 nM; at MMP-9 (value in parenthesis), 55.8 nM.
`CCc1cnc(N2CCN(S(=O)(=O)C3(C(=O)NO)CCN(CCOC)CC3)CC2)nc1` [Example 187]: the IC50 at MMP-14 (value in parenthesis) is above 10000 nM; on MMP-9 (value in parenthesis), 155 nM.
As for `CCC(CC)Cc1ccc(N2CCN(S(=O)(=O)C3(C(=O)NO)CCN(CCOC)CC3)CC2)cc1` [Example 188], the IC50 is above 10000 nM on MMP-14 (value in parenthesis) and 33.7 nM on MMP-9 (value in parenthesis).
Consider `CCCCOc1ccc(N2CCN(S(=O)(=O)C3(C(=O)NO)CCN(C(=O)CCC)CC3)CC2)cc1` [Example 290], for which the figures for the IC50 at MMP-14 (value in parentheses) and at MMP-9 (value in parentheses) were 3800 nM and 1.42 nM, respectively.
